Measurements as given in the CheMixHub viscosity set.

Experiment: xn = mol fraction of the nth substance listed

CCOC(=O)OCC + CCCCCCCO
101 kPa
Conditions	viscosity [mPa·s]
293.15 K, x1 = 0.0488	5.846
293.15 K, x1 = 0.1045	4.795
293.15 K, x1 = 0.1829	3.725
293.15 K, x1 = 0.3015	2.669
293.15 K, x1 = 0.4047	2.08
293.15 K, x1 = 0.4807	1.748
293.15 K, x1 = 0.5714	1.453
293.15 K, x1 = 0.7024	1.153
293.15 K, x1 = 0.7985	0.995
293.15 K, x1 = 0.9023	0.873
293.15 K, x1 = 0.9522	0.831
303.15 K, x1 = 0.06097	4.061
303.15 K, x1 = 0.1159	3.411
303.15 K, x1 = 0.1861	2.773
303.15 K, x1 = 0.296	2.086
303.15 K, x1 = 0.4	1.655
303.15 K, x1 = 0.4747	1.417
303.15 K, x1 = 0.5946	1.149
303.15 K, x1 = 0.7056	0.955
303.15 K, x1 = 0.7928	0.851
303.15 K, x1 = 0.9047	0.755
303.15 K, x1 = 0.9521	0.727
313.15 K, x1 = 0.05658	3.024
313.15 K, x1 = 0.1024	2.586
313.15 K, x1 = 0.1931	2.03
313.15 K, x1 = 0.3063	1.576
313.15 K, x1 = 0.3932	1.348
313.15 K, x1 = 0.4994	1.121
313.15 K, x1 = 0.5837	0.974
313.15 K, x1 = 0.7095	0.811
313.15 K, x1 = 0.7894	0.736
313.15 K, x1 = 0.8956	0.661
313.15 K, x1 = 0.9569	0.634

c1ccc(Oc2ccccc2)cc1 + c1ccc(-c2ccccc2)cc1
Conditions	viscosity [mPa·s]
293.15 K, 101 kPa, x1 = 0.705	4.35
298.15 K, 101 kPa, x1 = 0.705	3.78
298.15 K, 101 kPa, x1 = 0.85	3.71
298.95 K, 101.33 kPa, x1 = 0.715	3.66
303.15 K, 101 kPa, x1 = 0.85	3.32
308.15 K, 101 kPa, x1 = 0.705	2.94
308.15 K, 101 kPa, x1 = 0.85	2.93
309.85 K, 101.33 kPa, x1 = 0.715	2.84
313.15 K, 101 kPa, x1 = 0.55	2.63
313.15 K, 101 kPa, x1 = 0.705	2.61
313.15 K, 101 kPa, x1 = 0.85	2.61
314.15 K, 101.33 kPa, x1 = 0.715	2.57
318.65 K, 101.33 kPa, x1 = 0.715	2.4
321.95 K, 101.33 kPa, x1 = 0.715	2.29

CC(C)CCC[C@@H](C)[C@H]1CC[C@H]2[C@@H]3CC=C4C[C@@H](O)CC[C@]4(C)[C@H]3CC[C@]12C + ClC(Cl)Cl
viscosity [mPa·s], 101.33 kPa
Conditions	x1 = 0.00286	x1 = 0.0048	x1 = 0.0081	x1 = 0.0138	x1 = 0.01748	x1 = 0.0223	x1 = 0.02849	x1 = 0.03663
298 K	0.557	0.57	0.594	0.638	0.667	0.709	0.766	0.848
303 K	0.534	0.547	0.568	0.608	0.635	0.673	0.724	0.798
313 K	0.494	0.504	0.522	0.555	0.578	0.609	0.652	0.712
323 K	0.459	0.468	0.483	0.511	0.529	0.555	0.589	0.637

Cc1ccc(N)cc1 + Oc1ccccc1
101 kPa
Conditions	viscosity [mPa·s]
303.1 K, x2 = 0.43	7.57
303.1 K, x2 = 0.507	8.64
303.1 K, x2 = 0.619	9.42
303.1 K, x2 = 0.652	9.62
303.1 K, x2 = 0.741	8.94
313.05 K, x2 = 0.111	2.632
313.05 K, x2 = 0.2288	3.352
313.05 K, x2 = 0.3265	4.09
313.05 K, x2 = 0.4169	4.82
313.05 K, x2 = 0.4949	5.43
313.05 K, x2 = 0.5828	6.015
313.05 K, x2 = 0.6568	6.29
313.05 K, x2 = 0.737	6.27
313.05 K, x2 = 0.8217	5.915
313.05 K, x2 = 0.9089	5.38
